Assay results as given in patent publication US20230242494A1, “MALONITRILE DERIVATIVES” (Hoffmann-La Roche Inc., priority 2020, published 2023).

The molecules below were run against T1, human cGAS (residues 161-522) (Homo sapiens, UniProt Q8N884) (assay: cGAS Activity Assay—Malachite Green). Conditions: recombinant purified human cGAS 25 nM; 80 μM ATP, 80 μM GTP, 100 nM ISD; 4 hour at RT; phosphate detection by Malachite Green.
T1 construct: human cGAS (residues 161-522); made in house
Format: biochemical
Protocol: Compounds were tested for cGAS inhibition in a coupled enzymatic assay based on Phosphate detection by Malachite Green. Final assay conditions were 20 mM TRIS pH 7.5 (Applichem), 5 mM MgCl2 (Sigma) and 0.01% BSA (Sigma) supplemented with 80 μM ATP (Sigma), 80 μM GTP (Sigma) and 100 nM Interferon Stimulating DNA (ISD) (Microsynth). Recombinantly expressed purified human cGAS (residues 161-522) was used at 25 nM.
All compounds were prepared as 10 mM stock solutions in DMSO and a 16 pt dilution series in DMSO with a dilution factor of 2.5 was prepared. 1 μL of DMSO dilution series was transferred to 32.3 μL reaction buffer, mixed by pipetting up/down, spun for 1 minute at 3000 rpm and was visually inspected for precipitation. 5 μL of 3-fold enzyme stock solution were transferred to an empty 384-well Black/Clear Flat Bottom Polystyrene NBS (Corning) rows 3-24. Rows 1-2 were filled with assay buffer. Plates were spun 10 seconds at 1000 rpm (164×g). 5 μL of compound intermediate dilution was added and mixed by pipetting up/down to rows 3-24. Rows 1-2 were filled with 3.1% DMSO assay buffer. Plates were spun 10 seconds at 1000 rpm (164×g). 5 μL 3-fold Nucleotide/DNA mix was added to all wells to start the reaction. Plates were spun 10 seconds at 1000 rpm (164×g) and incubated for 4 hour at room temperature (RT) in the dark. 5 μL 4 U/ml PPase (Sigma) were added to all wells. Plates spun 10 seconds at 1000 rpm (164×g). 10 μL BioMol green Solution (Enzo Life Sciences) was added to all wells. Plates spun 10 seconds at 1000 rpm (164×g) and incubated 30 minutes at RT in the dark. Absorbance data was collected 620 nm on an EnVision Multilable Reader (Perkin Elmer) and the following measurement settings were used: excitation filter photometric was 620 nm; excitation from the top; measurement height was 1 mm; number of flashes was 30; number of flashes integrated was 1.
All plates are checked for abnormalities and outliers in the Blank Control (no protein, row 1) and the Neutral Control (no compound, row 2) are excluded using the 3*SD rule. Data was normalized to 0 and 100% by Blank and Neutral Control and each curve was fitted and judged using the 4 parameter logistic equation to determine the IC50 for cGAS inhibition.
Table 13 provides IC50 values (μM) for cGAS inhibition obtained for particular examples of the present invention as measured by the above-described assay.

T1 sequence (Q8N884 161-522): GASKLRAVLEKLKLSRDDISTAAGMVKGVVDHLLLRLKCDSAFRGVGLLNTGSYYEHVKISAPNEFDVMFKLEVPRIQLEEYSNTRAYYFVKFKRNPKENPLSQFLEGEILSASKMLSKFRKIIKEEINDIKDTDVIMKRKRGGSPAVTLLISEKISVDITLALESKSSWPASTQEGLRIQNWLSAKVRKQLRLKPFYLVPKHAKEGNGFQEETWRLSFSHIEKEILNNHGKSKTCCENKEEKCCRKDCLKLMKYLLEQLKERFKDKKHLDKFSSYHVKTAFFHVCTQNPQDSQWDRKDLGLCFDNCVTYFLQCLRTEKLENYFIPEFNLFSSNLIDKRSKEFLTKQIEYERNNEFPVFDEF

Row | Structure (SMILES) | IC50 [nM]
1 | Cc1oncc1/C(O)=C(\C#N)C(=O)Nc1ccc([S+]([O-])c2ccccc2)cn1 (centres unmarked) [Example 90, (Z)-2-cyano-3-hydroxy-3-(5-methylisoxazol-4-yl)-N-(5-(phenylsulfinyl)pyridin-2-yl)acrylamide] | 130
2 | Cc1oncc1/C(O)=C(\C#N)C(=O)Nc1ccc(S(=O)(=O)N(C)C)cc1 [Example 1, (Z)-2-cyano-N-(4-(N,N-dimethylsulfamoyl)phenyl)-3-hydroxy-3-(5-methylisoxazol-4-yl)acrylamide] | 170
3 | Cc1oncc1/C(O)=C(\C#N)C(=O)Nc1cccc(-c2ccccc2)c1 [Example 51, (Z)-2-cyano-3-hydroxy-3-(5-methylisoxazol-4-yl)-N-(3-phenylphenyl) prop-2-enamide] | 1990
4 | Cc1oncc1/C(O)=C(\C#N)C(=O)Nc1ncc(S(C)(=O)=O)c(-c2cccc(F)c2)n1 [Example 137, (Z)-2-cyano-N-(4-(3-fluorophenyl)-5-(methylsulfonyl)pyrimidin-2-yl)-3-hydroxy-3-(5-methylisoxazol-4-yl)acrylamide] | 60
5 | Cc1oncc1/C(O)=C(\C#N)C(=O)Nc1ncc(C2CCCCC2)cn1 [Example 79, (Z)-2-cyano-N-(5-cyclohexylpyrimidin-2-yl)-3-hydroxy-3-(5-methylisoxazol-4-yl)acrylamide] | 190
6 | CCc1oncc1/C(O)=C(\C#N)C(=O)Nc1ccc(C(F)(F)F)cc1 [Example 141, (Z)-2-cyano-3-(5-ethylisoxazol-4-yl)-3-hydroxy-N-(4-(trifluoromethyl)phenyl)acrylamide] | 6450
7 | Cc1oncc1/C(O)=C(\C#N)C(=O)Nc1ncc(C(F)(F)F)cn1 [Example 94, (Z)-2-cyano-3-hydroxy-3-(5-methylisoxazol-4-yl)-N-(5-(trifluoromethyl)pyrimidin-2-yl)acrylamide] | 90
8 | Cc1oncc1/C(O)=C(\C#N)C(=O)Nc1ccc(S(=O)(=O)N2CCOCC2)cc1 [Example 47, (Z)-2-cyano-3-hydroxy-3-(5-methylisoxazol-4-yl)-N-(4-(morpholinosulfonyl)phenyl)acrylamide] | 200
9 | Cc1oncc1/C(O)=C(\C#N)C(=O)Nc1ccc(C(=O)c2ccccc2)cc1 [Example 38, (Z)-N-(4-benzoylphenyl)-2-cyano-3-hydroxy-3-(5-methylisoxazol-4-yl)prop-2-enamide] | 1160
10 | Cc1cc(C(F)(F)F)ccc1NC(=O)/C(C#N)=C(\O)c1cnoc1C [Example 50, (Z)-2-cyano-3-hydroxy-N-(2-methyl-4-(trifluoromethyl)phenyl)-3-(5-methylisoxazol-4-yl)acrylamide] | 1050
11 | Cc1oncc1/C(O)=C(\C#N)C(=O)Nc1ncc(C(=O)N(C)Cc2ccccc2)cn1 [Example 100, N-benzyl-2-[[(Z)-2-cyano-3-hydroxy-3-(5-methylisoxazol-4-yl)prop-enoyl]amino]-N-methyl-2-pyrimidine-5-carboxamide] | 70
12 | COc1ccc(S(=O)(=O)c2ccc(NC(=O)/C(C#N)=C(\O)c3cnoc3C)cc2)cc1 [Example 39, (Z)-2-cyano-3-hydroxy-N-(4-((4-methoxyphenyl)sulfonyl)phenyl)-3-(5-methylisoxazol-4-yl)acrylamide] | 490
13 | COc1cnc(NC(=O)/C(C#N)=C(\O)c2cnoc2C)nc1CCc1ccccc1 [Example 129, (Z)-2-cyano-3-hydroxy-N-(5-methoxy-4-phenethylpyrimidin-2-yl)-3-(5-methylisoxazol-4-yl)acrylamide] | 520
14 | Cc1oncc1/C(O)=C(\C#N)C(=O)Nc1ccc(Sc2ccccc2)cc1 [Example 55, (Z)-2-cyano-3-hydroxy-3-(5-methylisoxazol-4-yl)-N-(4-(phenylthio)phenyl) acrylamide] | 2020
15 | Cc1oncc1/C(O)=C(\C#N)C(=O)Nc1cccc(CO)c1 [Example 143, (Z)-2-Cyano-3-hydroxy-N-[3-(hydroxymethyl)phenyl]-3-(5-methylisoxazol-4-yl)prop-2-enamide] | 960
16 | Cc1oncc1/C(O)=C(\C#N)C(=O)Nc1nccc(OCCF)n1 [Example 101, (Z)-2-cyano-N-(4-(2-fluoroethoxy)pyrimidin-2-yl)-3-hydroxy-3-(5-methylisoxazol-4-yl)acrylamide] | 120

Row | Structure (SMILES) | IC50 [nM]
17 | CCOc1cnc(NC(=O)/C(C#N)=C(\O)c2cnoc2C)nc1 [Example 98, (Z)-2-cyano-N-(5-ethoxypyrimidin-2-yl)-3-hydroxy-3-(5-methylisoxazol-4-yl)acrylamide] | 80
18 | Cc1oncc1/C(O)=C(\C#N)C(=O)Nc1ccc(CC(=O)O)cc1 [Example 145, 2-[4-[[(Z)-2-Cyano-3-hydroxy-3-(5-methylisoxazol-4-yl)prop-2-enoyl]amino]phenyl]acetic acid] | 470
19 | Cc1oncc1/C(O)=C(\C#N)C(=O)Nc1ncc(C#Cc2ccccc2)cn1 [Example 86, (Z)-2-cyano-3-hydroxy-3-(5-methylisoxazol-4-yl)-N-(5-(phenylethynyl)pyrimidin-2-yl)acrylamide] | 480
20 | Cc1oncc1/C(O)=C(\C#N)C(=O)Nc1cccc(C(=O)O)c1 [Example 144, 3-[[(Z)-2-Cyano-3-hydroxy-3-(5-methylisoxazol-4-yl)prop-2-enoyl]amino]benzoic acid] | 330
21 | CSc1ccc(NC(=O)/C(C#N)=C(\O)c2cnoc2C)cc1 [Example 14, (Z)-2-cyano-3-hydroxy-3-(5-methylisoxazol-4-yl)-N-(4-(methylthio)phenyl) acrylamide] | 670
22 | Cc1oncc1/C(O)=C(\C#N)C(=O)Nc1cccc(C#N)c1 [Example 33, (Z)-2-cyano-N-(3-cyanophenyl)-3-hydroxy-3-(5-methylisoxazol-4-yl)prop-2-enamide] | 310
23 | Cc1oncc1/C(O)=C(\C#N)C(=O)Nc1ncc(C(=O)N(C)Cc2ccccc2)c(CCc2ccccc2)n1 [Example 133, (Z)-N-benzyl-2-(2-cyano-3-hydroxy-3-(5-methylisoxazol-4-yl)acrylamido)-N-methyl-4-phenethylpyrimidine-5-carboxamide] | 1330
24 | Cc1oncc1/C(O)=C(\C#N)C(=O)Nc1ccccc1C(F)(F)F [Example 9, (Z)-2-cyano-3-hydroxy-3-(5-methylisoxazol-4-yl)-N-(2-(trifluoromethyl)phenyl) acrylamide] | 7240
25 | Cc1oncc1/C(O)=C(\C#N)C(=O)Nc1ccc(S(C)(=O)=O)cn1 [Example 91, (Z)-2-cyano-3-hydroxy-3-(5-methylisoxazol-4-yl)-N-(5-(methylsulfonyl)pyridin-2-yl)acrylamide] | 100
26 | Cc1oncc1/C(O)=C(\C#N)C(=O)Nc1ncc(S(C)(=O)=O)c(CCc2ccccc2)n1 [Example 138, (Z)-2-cyano-3-hydroxy-3-(5-methylisoxazol-4-yl)-N-(5-(methylsulfonyl)-4-phenethylpyrimidin-2-yl)acrylamide] | 200
27 | Cc1oncc1/C(O)=C(\C#N)C(=O)Nc1cccc(C(F)(F)F)c1 [Example 5, (Z)-2-cyano-3-hydroxy-3-(5-methylisoxazol-4-yl)-N-[3-(trifluoromethyl)phenyl] prop-2-enamide] | 1500
28 | Cc1cc(NC(=O)/C(C#N)=C(\O)c2cnoc2C)ccc1Oc1ccc(C(F)(F)F)cc1 [Example 19, (Z)-2-cyano-3-hydroxy-N-(3-methyl-4-(4-(trifluoromethyl)phenoxy)phenyl)-3-(5-methylisoxazol-4-yl)acrylamide] | 7420
29 | Cc1oncc1/C(O)=C(\C#N)C(=O)Nc1ccc(S(=O)(=O)c2ccccc2C#N)cc1 [Example 122, (Z)-2-cyano-N-(4-((2-cyanophenyl)sulfonyl)phenyl)-3-hydroxy-3-(5-methylisoxazol-4-yl)acrylamide] | 130
30 | Cc1oncc1/C(O)=C(\C#N)C(=O)Nc1ncc(Oc2ccccc2)cn1 [Example 82, (Z)-2-cyano-3-hydroxy-3-(5-methylisoxazol-4-yl)-N-(5-phenoxypyrimidin-2-yl)acrylamide] | 300
31 | Cc1oncc1/C(O)=C(\C#N)C(=O)Nc1ncc(C(=O)N(C)c2ccccc2)cn1 [Example 99, 2-[[(Z)-2-cyano-3-hydroxy-3-(5-methylisoxazol-4-yl)prop-2-enoyl]amino]-N-methyl-N-phenyl-pyrimidine-5-carboxamide] | 90
32 | Cc1oncc1/C(O)=C(\C#N)C(=O)Nc1ncc(S(=O)(=O)N(C)C)cn1 [Example 96, (Z)-2-cyano-N-(5-(N,N-dimethylsulfamoyl)pyrimidin-2-yl)-3-hydroxy-3-(5-methylisoxazol-4-yl)acrylamide] | 70
